Here are results for ten molecules from patent US7241794B2, “Nonnucleoside reverse transcriptase inhibitors” (RochePalo Alto LLC, priority 2003, dated 2007).

The structures appear in SMILES notation.

One data set deals with HXB2-strain of HIV in MT4 cells. The data set can be described thus: Antiviral assay: protection of HIV-infected MT4 cells from cell death (MTT). In kind it is cell-based. As to conditions: Human immunodeficiency virus 1, 120 h, MT4 cells infected with HXB2-strain of HIV, 5 days. As for the experimental part: Anti-HIV antiviral activity was assessed using an adaptation of the method of Pauwels et al. {Pauwels et al., 1988, J Virol Methods 20:309-321 }. The method is based on the ability of compounds to protect HIV-infected T lymphoblastoid cells (MT4 cells) from cell-death mediated by the infection. The endpoint of the assay was calculated as the concentration of compound at which the cell viability of the culture was preserved by 50% (‘50% inhibitory concentration’, IC50). The cell viability of a culture was determined by the uptake of soluble, yellow 3-[4,5-dimethylthiazol-2-yl]-2,5-diphenyltetrazolium bromide (MTT) and its reduction to a purple insoluble formazan salt. After solubilization, spectrophotometric methods were employed to measure the amount of formazan product. […]
A fresh solution of 5 mg/mL MTT was prepared in 0.01 M phosphate buffered saline, pH 7.2 and 20 microliters added to each culture. […] When the formazan deposit was fully solubilized by further mixing, the absorbance (OD) of the cultures was measured at 540 nm and 690 nm wavelength (690 nm readings were used as blanks for artifacts between wells). The percent protection for each treated culture was then calculated from the equation: […]
On to `CCc1c(CO)nn(CC)c1Oc1cc(Cl)cc(Cl)c1` [Cpd 17, [5-(3,5-Dichloro-phenoxy)-1,4-diethyl-1H-pyrazol-3-yl]-methanol], for which the IC50 was found to be 0.0401 µM.

For another data set, the target named is HIV-1 RT (Human immunodeficiency virus type 1 group M subtype B, UniProt P03366). The data set can be described thus: HIV Reverse Transcriptase Assay: Inhibitor IC50 Determination. In kind it is biochemical. As to conditions: purified recombinant enzyme, poly(rA)/oligo(dT)16 template-primer; read-out: IC50(μM) RTI. As for the experimental part:
HIV Reverse Transcriptase Assay: Inhibitor IC50 Determination
HIV-1 RT assay was carried out in 96-well Millipore MultiScreen MADVNOB50 plates using purified recombinant enzyme and a poly(rA)/oligo(dT)16 template-primer in a total volume of 50 μL. The assay constituents were 50 mM Tris/HCl, 50 mM NaCl, 1 mM EDTA, 6 mM MgCl2, 5 μM dTTP, 0.15 μCi [^3H] dTTP, 5 μg/ml poly (rA) pre annealed to 2.5 μg/ml oligo (dT)16 and a range of inhibitor concentrations in a final concentration of 10% DMSO. Reactions were initiated by adding 4 nM HIV-1 RT and after incubation at 37° C. for 30 min, they were stopped by the addition of 50 μl ice cold 20% TCA and allowed to precipitate at 4° C. for 30 min. The precipitates were collected by applying vacuum to the plate and sequentially washing with 3×200 μl of 10% TCA and 2×200 μl 70% EtOH. Finally, the plates were dried and radioactivity counted in a Packard TopCounter after the addition of 25 μl scintillation fluid per well. IC50'swere calculated by plotting % inhibition versus log10 inhibitor concentrations. Representative IC50 data has been included in Table 2.
For the molecule `CCc1c(CCO)nn(C(C)C)c1Oc1cc(Cl)cc(Cl)c1` [Cpd 36, 2-[5-(3,5-Dichloro-phenoxy)-4-ethyl-1-isopropyl-1H-pyrazol-3-yl]-ethanol], the IC50 amounted to 0.0383 µM.
For the molecule `CCc1c(CCN)nn(C(C)C)c1Oc1cc(Cl)cc(Cl)c1` [Cpd 48, 2-[5-(3,5-Dichloro-phenoxy)-4-ethyl-1-isopropyl-1H-pyrazol-3-yl]-ethylamine], the half-inhibitory concentration (IC50) turned out to be 1.07 µM.
Same read-out and setting: to `CCc1c(CNC=O)nn(C(C)C)c1Oc1cc(Cl)cc(Cl)c1` [Cpd 40, N-[5-(3,5-Dichloro-phenoxy)-4-ethyl-1-isopropyl-1H-pyrazol-3-ylmethyl]-formamide] belongs 0.648 µM; to `CCCc1c(CO)nn(CC)c1Oc1cc(Cl)cc(Cl)c1` [Cpd 22, [5-(3,5-Dichloro-phenoxy)-1-ethyl-4-propyl-1H-pyrazol-3-yl]-methanol], 1.56 µM; to `CCc1c(CO)nn(CC)c1Oc1cc(Cl)cc(Cl)c1` [Cpd 17, [5-(3,5-Dichloro-phenoxy)-1,4-diethyl-1H-pyrazol-3-yl]-methanol], 1.66 µM.

Test system in another data set: not given
Experiment: not given
Conditions: not given
Turning to `CCc1c(CC(=O)Nc2ccccc2)nn(C(C)C)c1Oc1cc(Cl)cc(Cl)c1` [Cpd 87, 2-[5-(3,5-Dichloro-phenoxy)-4-ethyl-1-isopropyl-1H-pyrazol-3-yl]-N-phenyl-acetamide], the melting point fell in the range of 118.9 to 120.9 °C.
`CCc1c(CC(=O)Nc2ccccc2)nn(CC)c1Oc1cc(Cl)cc(Cl)c1` [Cpd 86, 2-[5-(3,5-Dichloro-phenoxy)-1,4-iethyl-1H-pyrazol-3-yl]-N-phenyl-acetamide] gave a melting point of 112.2 to 115.9 °C.
Consider `CCn1nc(CCO)c(Cc2ccncc2)c1Oc1cc(Cl)cc(Cl)c1` [Cpd 85, 2-[5-(3,5-Dichloro-phenoxy)-1-ethyl-4-pyridin-4-ylmethyl-1H-pyrazol-3-yl]-ethanol], for which the melting point lay within 103 to 105.8 °C.
Same read-out and setting: to `CCc1c(Cc2ncc[nH]2)nn(CC)c1Oc1cc(Cl)cc(Cl)c1` [Cpd 88, 5-(3,5-Dichloro-phenoxy)-1,4-diethyl-3-(1H-imidazol-2-ylmethyl)-1H-pyrazole] belongs 145 to 148 °C.
`CCc1c(Cc2cnc[nH]2)nn(CC)c1Oc1cc(Cl)cc(Cl)c1` [Cpd 90, 5-(3,5-Dichloro-phenoxy)-1,4-diethyl-3-(3H-imidazol-4-ylmethyl)-1H-pyrazole]: the melting point is 142 to 145.2 °C.

A word on the IC50: it is the point on the concentration scale where inhibition reaches its midpoint. Broadly, the melting point is the temperature, or range, at which the solid turns liquid.
